Experimental data reported in ChEMBL document CHEMBL1201862, “PubChem BioAssay data set” (2004).
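Dose response: 5 concentrations. Exposure: 48 h. Format: 96-well plates. Endpoint: linear interpolation; highest concentration if not reached. At the GI50, growth is halved.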 The source made the active and inactive calls. Cut-off read from the data, not from the text of the source: active = GI50 up to about 1.1 µM and inactive = higher.

How the values were obtained:
Assay in all cases: DTP human tumour cell line panel, 48 h
OVCAR-3 = test system: OVCAR-3
U-251 = test system: U-251
ACHN = test system: ACHN
SK-MEL-28 = test system: SK-MEL-28
IGROV-1 = test system: IGROV-1
TK-10 = test system: TK-10
HOP-92 = test system: HOP-92
M14 = test system: M14
OVCAR-5 = test system: OVCAR-5
CCRF-CEM = test system: CCRF-CEM
Hs-578T = test system: Hs-578T
UACC-62 = test system: UACC-62
SK-OV-3 = test system: SK-OV-3
SF-268 = test system: SF-268
Malme-3M = test system: Malme-3M
SW-620 = test system: SW-620
SF-539 = test system: SF-539
SR = test system: SR
HL-60 = test system: HL-60
MCF7 = test system: MCF7

O=c1/c(=C/c2ccccn2)sc2nc3cc4c(cc3n12)OCCO4
GI50 (OVCAR-3): > 100 µM (inactive)
GI50 (U-251): > 100 µM (inactive)
GI50 (ACHN): > 100 µM (inactive)
GI50 (SK-MEL-28): > 100 µM (inactive)
GI50 (IGROV-1): > 100 µM (inactive)
GI50 (TK-10): > 100 µM (inactive)
GI50 (HOP-92): > 100 µM (inactive)
GI50 (M14): > 100 µM (inactive)
GI50 (OVCAR-5): > 100 µM (inactive)
GI50 (CCRF-CEM): > 100 µM (inactive)
GI50 (Hs-578T): > 100 µM (inactive)
GI50 (UACC-62): > 100 µM (inactive)
GI50 (SK-OV-3): > 100 µM (inactive)
GI50 (SF-268): > 100 µM (inactive)
GI50 (Malme-3M): > 100 µM (inactive)
GI50 (SW-620): > 100 µM (inactive)

O=C(c1ccc(/N=C/c2ccccc2O)cc1)c1ccc(/N=C/c2ccccc2O)cc1
GI50 (OVCAR-3): > 100 µM (inactive)
GI50 (SF-539): > 100 µM (inactive)
GI50 (U-251): > 100 µM (inactive)
GI50 (ACHN): > 100 µM (inactive)
GI50 (SK-MEL-28): > 100 µM (inactive)
GI50 (IGROV-1): > 100 µM (inactive)
GI50 (TK-10): > 100 µM (inactive)
GI50 (HOP-92): > 100 µM (inactive)
GI50 (M14): > 100 µM (inactive)
GI50 (SR): > 100 µM (inactive)
GI50 (OVCAR-5): > 100 µM (inactive)
GI50 (HL-60): > 100 µM (inactive)
GI50 (UACC-62): > 100 µM (inactive)
GI50 (SK-OV-3): > 100 µM (inactive)
GI50 (MCF7): > 100 µM (inactive)
GI50 (SF-268): > 100 µM (inactive)
GI50 (Malme-3M): > 100 µM (inactive)
GI50 (SW-620): > 100 µM (inactive)

COc1cc2c(cc1OCCCC(=O)Nc1cc(C(=O)Nc3cc(C(=O)NCCCN(C)C)n(C)n3)n(C)n1)N=CC1CCCN1C2=O (stereo not given)
GI50 (OVCAR-3): 18.5 µM (inactive)
GI50 (SF-539): 21.7 µM (inactive)
GI50 (U-251): 17 µM (inactive)
GI50 (ACHN): 16.2 µM (inactive)
GI50 (SK-MEL-28): 16.7 µM (inactive)
GI50 (IGROV-1): 12.8 µM (inactive)
GI50 (TK-10): 19.7 µM (inactive)
GI50 (HOP-92): 19.1 µM (inactive)
GI50 (M14): 16 µM (inactive)
GI50 (SR): 12.9 µM (inactive)
GI50 (OVCAR-5): 19.4 µM (inactive)
GI50 (CCRF-CEM): 12.5 µM (inactive)
GI50 (HL-60): 15.2 µM (inactive)
GI50 (UACC-62): 20.1 µM (inactive)
GI50 (SK-OV-3): 57.3 µM (inactive)
GI50 (MCF7): 12.6 µM (inactive)
GI50 (SF-268): 18.3 µM (inactive)
GI50 (Malme-3M): 17.2 µM (inactive)
GI50 (SW-620): 15.2 µM (inactive)

O=C(O)c1ccc([N+](=O)[O-])c(P(=O)(O)O)c1
GI50 (OVCAR-3): > 100 µM (inactive)
GI50 (SF-539): > 100 µM (inactive)
GI50 (U-251): > 100 µM (inactive)
GI50 (ACHN): > 100 µM (inactive)
GI50 (SK-MEL-28): > 100 µM (inactive)
GI50 (IGROV-1): > 100 µM (inactive)
GI50 (TK-10): > 100 µM (inactive)
GI50 (HOP-92): > 100 µM (inactive)
GI50 (M14): > 100 µM (inactive)
GI50 (SR): > 100 µM (inactive)
GI50 (OVCAR-5): > 100 µM (inactive)
GI50 (HL-60): > 100 µM (inactive)
GI50 (UACC-62): > 100 µM (inactive)
GI50 (SK-OV-3): > 100 µM (inactive)
GI50 (MCF7): > 100 µM (inactive)
GI50 (SW-620): > 100 µM (inactive)

COC(=O)C(=O)CC(=O)CCn1ncc(Cl)c(Cl)c1=O
GI50 (OVCAR-3): 12.8 µM (inactive)
GI50 (SF-539): 19.6 µM (inactive)
GI50 (U-251): 9.23 µM (inactive)
GI50 (ACHN): 20.1 µM (inactive)
GI50 (SK-MEL-28): 14 µM (inactive)
GI50 (IGROV-1): 17.1 µM (inactive)
GI50 (TK-10): 47.4 µM (inactive)
GI50 (HOP-92): 15.7 µM (inactive)
GI50 (M14): 14.7 µM (inactive)
GI50 (SR): 2.84 µM (inactive)
GI50 (OVCAR-5): 19.2 µM (inactive)
GI50 (CCRF-CEM): 3.59 µM (inactive)
GI50 (HL-60): 3.94 µM (inactive)
GI50 (UACC-62): 10 µM (inactive)
GI50 (SK-OV-3): 31 µM (inactive)
GI50 (SF-268): 11.3 µM (inactive)
GI50 (Malme-3M): 18.7 µM (inactive)
GI50 (SW-620): 8.36 µM (inactive)

CC(C)NC(=O)O/N=C1\CCC2[C@@H]3CC=C4C[C@@H](OC(=O)NC(C)C)CC[C@]4(C)C3CC[C@]12C (stereo not given in full)
GI50 (OVCAR-3): 1.08 µM (active)
GI50 (SF-539): 2.4 µM (inactive)
GI50 (U-251): 1.38 µM (inactive)
GI50 (ACHN): 0.971 µM (active)
GI50 (SK-MEL-28): 1.59 µM (inactive)
GI50 (IGROV-1): 1.87 µM (inactive)
GI50 (TK-10): 1.66 µM (inactive)
GI50 (HOP-92): 2.08 µM (inactive)
GI50 (M14): 0.627 µM (active)
GI50 (SR): 1.2 µM (inactive)
GI50 (OVCAR-5): 0.748 µM (active)
GI50 (CCRF-CEM): 1.24 µM (inactive)
GI50 (HL-60): 0.632 µM (active)
GI50 (UACC-62): 1.3 µM (inactive)
GI50 (SK-OV-3): 4.31 µM (inactive)
GI50 (SF-268): 1.49 µM (inactive)
GI50 (Malme-3M): 0.31 µM (active)
GI50 (SW-620): 1.79 µM (inactive)
